Data reported in patent US10052320B2, “Substituted quinoxalines as FGFR kinase inhibitors” (ASTEX THERAPEUTICS LIMITED, priority 2011, dated 2018).
Where “and” joins values, the source holds several entries; their conditions need not be identical. Equal entries are not always repeated.

Legend:
[1] = biological target: Ba/F3-KDR-transfected cells (Homo sapiens, UniProt P35968); experiment: Ba/F3-KDR (minus IL3) cellular proliferation assay, Alamar Blue; type: cell-based; conditions: minus IL3
Summary of the method: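 Ba/F3-KDR cells in phenol red free RPMI-1640 with 10% FBS were exposed to compound for 24 h at 37 °C, 5% CO2. Alamar Blue (resazurin) was then added for 4 h and fluorescence read at ex 540/em 590 nm. The counterscreen ran identically with 10 ng/ml murine IL3.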

[2] = test system: Ba/F3-Flt3-transfected cells in the presence of 10 ng/ml murine IL3; experiment: Ba/F3-Flt3 (plus IL3) cellular proliferation counterscreen, Alamar Blue; type: cell-based; conditions: Mus musculus; plus 10 ng/ml murine IL3; read-out: BAF3-FLT3 (PLUS IL3) 384 well pIC50 (converted)
[3] = biological target: Ba/F3-FGFR4-transfected cells (Homo sapiens, UniProt P22455); experiment: Ba/F3-FGFR4 cellular proliferation assay, Alamar Blue; type: cell-based
Chain of Ba/F3-FGFR4-transfected cells (P22455 whole entry, change not shown): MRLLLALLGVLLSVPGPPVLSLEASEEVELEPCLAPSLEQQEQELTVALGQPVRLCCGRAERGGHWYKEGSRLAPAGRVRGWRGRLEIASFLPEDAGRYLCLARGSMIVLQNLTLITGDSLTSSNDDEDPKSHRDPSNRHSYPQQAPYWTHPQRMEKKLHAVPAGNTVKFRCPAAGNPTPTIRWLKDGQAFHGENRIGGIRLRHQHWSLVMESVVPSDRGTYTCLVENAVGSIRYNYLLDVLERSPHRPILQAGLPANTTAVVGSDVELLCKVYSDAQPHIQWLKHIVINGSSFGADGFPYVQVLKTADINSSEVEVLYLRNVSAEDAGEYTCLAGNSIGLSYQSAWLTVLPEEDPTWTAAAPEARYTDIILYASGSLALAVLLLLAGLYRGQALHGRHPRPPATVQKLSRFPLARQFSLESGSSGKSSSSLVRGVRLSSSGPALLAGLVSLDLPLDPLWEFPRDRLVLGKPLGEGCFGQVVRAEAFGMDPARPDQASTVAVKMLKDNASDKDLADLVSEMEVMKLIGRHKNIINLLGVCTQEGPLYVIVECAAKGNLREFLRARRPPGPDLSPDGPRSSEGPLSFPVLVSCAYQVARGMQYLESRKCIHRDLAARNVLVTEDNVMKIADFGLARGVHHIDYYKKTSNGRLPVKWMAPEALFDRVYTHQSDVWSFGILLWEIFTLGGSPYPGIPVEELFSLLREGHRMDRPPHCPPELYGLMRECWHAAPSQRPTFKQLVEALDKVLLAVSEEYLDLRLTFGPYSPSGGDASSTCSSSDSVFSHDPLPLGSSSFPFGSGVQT
Summary of the method: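 Ba/F3 cells transfected with FGFR4, 20000 cells/well in phenol red-free RPMI-1640 with 10% FBS, were exposed to compound for 24 h at 37° C, 5% CO2. Alamar Blue (resazurin) was then added for 4 h, and fluorescence was read at ex 540/em 590 nm.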

[4] = biological target: FGFR2 (h) (Homo sapiens, UniProt P21802); experiment: FGFR2 (enzymatic assay), TR-FRET; type: biochemical; conditions: read-out: FGFR 2 pIC50 (converted)
Chain of FGFR2 (h) (P21802 22-821): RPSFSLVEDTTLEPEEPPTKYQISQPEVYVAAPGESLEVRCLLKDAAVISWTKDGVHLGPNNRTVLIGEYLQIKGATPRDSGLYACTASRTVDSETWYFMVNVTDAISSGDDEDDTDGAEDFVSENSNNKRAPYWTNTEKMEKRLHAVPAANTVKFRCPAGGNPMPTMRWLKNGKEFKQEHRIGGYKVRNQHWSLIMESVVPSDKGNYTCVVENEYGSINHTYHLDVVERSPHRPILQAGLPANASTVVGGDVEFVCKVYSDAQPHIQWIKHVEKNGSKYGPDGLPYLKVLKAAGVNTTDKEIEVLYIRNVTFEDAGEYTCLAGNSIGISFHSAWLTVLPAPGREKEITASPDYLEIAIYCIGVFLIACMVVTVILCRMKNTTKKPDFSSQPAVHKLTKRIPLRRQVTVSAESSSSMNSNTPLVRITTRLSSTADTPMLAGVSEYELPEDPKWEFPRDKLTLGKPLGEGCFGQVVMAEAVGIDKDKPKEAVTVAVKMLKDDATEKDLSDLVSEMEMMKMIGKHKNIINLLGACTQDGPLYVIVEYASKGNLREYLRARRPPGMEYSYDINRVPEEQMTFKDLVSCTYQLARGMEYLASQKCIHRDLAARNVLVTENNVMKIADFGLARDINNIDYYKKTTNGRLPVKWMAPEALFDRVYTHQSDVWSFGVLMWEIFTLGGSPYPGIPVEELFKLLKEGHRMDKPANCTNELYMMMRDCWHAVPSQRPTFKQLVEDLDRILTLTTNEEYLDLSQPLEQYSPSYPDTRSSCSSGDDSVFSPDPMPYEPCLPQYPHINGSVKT
Method: In a final reaction volume of 30 μL, FGFR2 (h) (150 ng/ml) was incubated with 50 mM HEPES pH 7.5, 6 mM MnCl2, 1 mM DTT, 0.1 mM Na3VO4, 0.01% Triton-X-100, 500 nM Btn-Flt3 and 0.4 μM ATP in the presence of compound (1% DMSO final). […] Time-Resolved Fluorescence Resonance Energy Transfer (TR-FRET) signal (ex340 nm. Em 620 nm, em 655 nm) was measured afterwards and results are expressed in (Relative Fluorescence Units).

[5] = biological target: FGFR4 (h) (Homo sapiens, UniProt P22455); experiment: FGFR4 (enzymatic assay), TR-FRET; type: biochemical; conditions: read-out: FGFR 4 pIC50 (converted)
Chain of FGFR4 (h) (P22455 22-802): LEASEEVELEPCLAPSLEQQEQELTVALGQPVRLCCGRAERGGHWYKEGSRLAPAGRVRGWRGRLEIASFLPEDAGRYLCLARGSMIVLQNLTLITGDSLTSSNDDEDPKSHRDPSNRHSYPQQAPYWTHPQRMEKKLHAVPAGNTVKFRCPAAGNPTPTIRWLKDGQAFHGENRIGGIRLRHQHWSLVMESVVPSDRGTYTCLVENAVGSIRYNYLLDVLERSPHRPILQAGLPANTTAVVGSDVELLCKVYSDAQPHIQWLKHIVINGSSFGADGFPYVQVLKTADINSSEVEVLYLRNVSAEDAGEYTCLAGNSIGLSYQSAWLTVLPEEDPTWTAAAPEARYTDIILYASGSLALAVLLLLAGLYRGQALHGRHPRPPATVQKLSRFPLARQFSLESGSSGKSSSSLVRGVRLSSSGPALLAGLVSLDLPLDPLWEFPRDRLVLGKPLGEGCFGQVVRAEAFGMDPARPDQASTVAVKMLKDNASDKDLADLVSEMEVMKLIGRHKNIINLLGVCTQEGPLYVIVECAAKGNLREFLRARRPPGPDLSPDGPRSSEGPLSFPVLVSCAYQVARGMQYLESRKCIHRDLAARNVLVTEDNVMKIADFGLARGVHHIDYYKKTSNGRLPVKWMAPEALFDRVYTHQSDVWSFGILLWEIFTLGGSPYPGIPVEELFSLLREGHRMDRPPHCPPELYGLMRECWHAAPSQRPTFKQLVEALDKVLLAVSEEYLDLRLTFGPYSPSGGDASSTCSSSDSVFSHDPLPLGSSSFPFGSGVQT
Method: In a final reaction volume of 30 μL, FGFR4 (h) (60 ng/ml) was incubated with 50 mM HEPES pH 7.5, 6 mM MnCl2, 1 mM DTT, 0.1 mM Na3VO4, 0.01% Triton-X-100, 500 nM Btn-Flt3 and 5 μM ATP in the presence of compound (1% DMSO final). […] Time-Resolved Fluorescence Resonance Energy Transfer (TR-FRET) signal (ex340 nm. Em 620 nm, em 655 nm) was measured afterwards and results are expressed in RFU (Relative Fluorescence Units).

Chain of Ba/F3-KDR-transfected cells (P35968 whole entry, change not shown): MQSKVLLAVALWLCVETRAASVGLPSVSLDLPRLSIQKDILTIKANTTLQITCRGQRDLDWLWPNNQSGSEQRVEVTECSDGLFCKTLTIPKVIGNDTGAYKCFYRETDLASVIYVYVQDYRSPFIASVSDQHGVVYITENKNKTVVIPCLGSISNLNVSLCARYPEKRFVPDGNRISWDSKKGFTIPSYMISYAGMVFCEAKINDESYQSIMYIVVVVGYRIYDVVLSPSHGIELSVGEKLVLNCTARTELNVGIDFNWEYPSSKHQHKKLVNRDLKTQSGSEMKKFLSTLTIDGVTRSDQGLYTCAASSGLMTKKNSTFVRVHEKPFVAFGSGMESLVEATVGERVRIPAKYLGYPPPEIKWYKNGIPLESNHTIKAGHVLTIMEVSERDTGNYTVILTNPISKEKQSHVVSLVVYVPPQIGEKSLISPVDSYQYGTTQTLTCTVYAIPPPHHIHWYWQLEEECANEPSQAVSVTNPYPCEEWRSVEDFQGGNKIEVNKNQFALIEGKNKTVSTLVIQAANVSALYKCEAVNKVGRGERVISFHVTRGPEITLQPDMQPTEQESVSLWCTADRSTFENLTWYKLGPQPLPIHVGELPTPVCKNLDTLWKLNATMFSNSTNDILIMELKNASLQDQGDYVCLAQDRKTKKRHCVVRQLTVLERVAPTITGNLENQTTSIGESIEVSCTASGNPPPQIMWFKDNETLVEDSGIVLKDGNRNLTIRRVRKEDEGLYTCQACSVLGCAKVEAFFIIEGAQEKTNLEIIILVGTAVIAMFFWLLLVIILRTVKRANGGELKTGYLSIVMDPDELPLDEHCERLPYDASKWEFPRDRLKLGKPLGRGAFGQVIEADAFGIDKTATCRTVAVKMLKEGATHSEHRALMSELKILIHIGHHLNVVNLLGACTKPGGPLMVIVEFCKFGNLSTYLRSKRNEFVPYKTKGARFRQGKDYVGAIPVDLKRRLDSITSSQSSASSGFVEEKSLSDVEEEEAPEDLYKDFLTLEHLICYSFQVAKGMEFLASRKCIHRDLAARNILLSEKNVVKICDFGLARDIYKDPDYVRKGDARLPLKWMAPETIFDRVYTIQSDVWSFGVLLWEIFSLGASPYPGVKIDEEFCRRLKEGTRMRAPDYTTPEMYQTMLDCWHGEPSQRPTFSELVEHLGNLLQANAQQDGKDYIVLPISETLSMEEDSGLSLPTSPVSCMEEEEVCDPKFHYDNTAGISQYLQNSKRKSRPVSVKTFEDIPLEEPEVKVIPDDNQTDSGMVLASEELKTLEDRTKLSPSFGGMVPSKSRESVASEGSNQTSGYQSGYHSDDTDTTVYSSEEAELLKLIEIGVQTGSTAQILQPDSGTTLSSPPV

BAF3-KDR (MIN IL3) 384 well pIC50 [1]	melting point	BAF3-FGFR4 pIC50 [3]	IC50 [4]	IC50 [5]	BAF3-KDR (MIN IL3) 96 well pIC50 [1]	Structure (SMILES)	IC50 [2]
5.18	135 °C	5.6	12 nM	24.5 nM		COCCN(c1cc(OC)cc(OC)c1)c1ccc2ncc(-c3ccn(C)c3)nc2c1 [Compound 6]	> 10000 nM
5.12	151 °C	5.8	17 nM	52.5 nM		COc1cc(OC)cc(N(CCO)c2ccc3ncc(-c4cccnc4)nc3c2)c1 [Compound 9]	> 10000 nM
5.1	158 °C	5.9	14.1 nM	41.7 nM		COc1cc(OC)cc(N(CCO)c2ccc3ncc(-c4ccncc4)nc3c2)c1 [Compound 11]	> 10000 nM
5.53	118 °C	6.8	2.45 nM	20.4 nM		COc1cc(OC)cc(N(CCNC(C)C)c2ccc3ncc(-c4ccncc4)nc3c2)c1 [Compound 12]	> 10000 nM
5.35	68 °C	6.8	5.62 nM	41.7 nM		CNC(=O)c1cc(-c2cnc3ccc(N(CCNC(C)C)c4cc(OC)cc(OC)c4)cc3n2)ccn1 [Compound 14]	> 10000 nM
5.82	144 °C	~7.11	2.11 nM	8.04 nM		COc1cc(OC)cc(N(CCNC(C)C)c2ccc3ncc(-c4ccc(N)nc4)nc3c2)c1 [Compound 17]	> 9550 nM
<5	60 °C	<5	427 nM	> 1000 nM	5.36	COc1cc(OC)cc(N(CC2CC2)c2ccc3ncc(C#Cc4ccncc4)nc3c2)c1 [Compound 23]	> 10000 nM
<5	128 °C	~5.1	25.1 nM	191 nM	<5	COc1cc(OC)cc(N(CC2CC2)c2ccc3ncc(-c4cn(CCN5CCOCC5)nn4)nc3c2)c1 [Compound 24]	> 10000 nM
<5	176 °C	<5	251 nM	> 1000 nM		CNC(=O)c1cc(-c2cnc3ccc(N(CCN4CCCC4=O)c4cc(OC)cc(OC)c4)cc3n2)ccn1 [Compound 25]	> 10000 nM
5.07	113 °C	<5.35	67.6 nM	214 nM	5.11	COc1cc(OC)cc(N(CC2CC2)c2ccc3ncc(-n4cnc(C)c4)nc3c2)c1 [Compound 30]	> 10000 nM
<5	107 °C	<5	> 1000 nM	776 nM		COc1cc(OC)cc(N(CC2CC2)c2ccc3ncc(-n4ccc(C)n4)nc3c2)c1 [Compound 31]	> 10000 nM
<5	110 °C	5.2	22.9 nM	115 nM		COc1cc(OC)cc(N(CCCO)c2ccc3ncc(-c4ccnc(C(=O)NCCCN)c4)nc3c2)c1 [Compound 33]	> 10000 nM
<5	178 °C and 177 °C	~5.0	89.1 nM	302 nM	<5	COc1cc(OC)cc(N(CC2CC2)c2ccc3ncc(-c4cn(CCO)nn4)nc3c2)c1 [Compound 40]	> 10000 nM
<5	216 °C	<5	178 nM	79.4 nM		COc1cc(OC)cc(N(CC2CC2)c2ccc3ncc(-c4nnn[nH]4)nc3c2)c1 [Compound 41]	> 10000 nM
5.39	184 °C	6.5	4.07 nM	15.5 nM		COc1cc(OC)cc(N(CCCO)c2ccc3ncc(-c4ccc(N5CCNCC5)nc4)nc3c2)c1 [Compound 48]	4170 nM
<5	168 °C	<5	~708 nM	> 1000 nM	<5	COc1cc(OC)cc(N(CC2CC2)c2ccc3ncc(-n4cncn4)nc3c2)c1 [Compound 50]	> 10000 nM
5.04		5.7	8.91 nM	69.2 nM		COc1cc(OC)cc(N(Cc2cccc(CN)n2)c2ccc3ncc(-c4ccc(N)nc4)nc3c2)c1 [Compound 51]	~7080 nM
<5	152 °C	<5	47.9 nM	275 nM	<5	COc1cc(OC)cc(N(CC2CC2)c2ccc3ncc(-c4cnco4)nc3c2)c1 [Compound 55]	> 10000 nM
<5		<5	537 nM	550 nM		COc1cc(OC)cc(N(CC2CC2)c2ccc3ncc(-c4ccn[nH]4)nc3c2)c1 [Compound 58]	8320 nM
<5	175 °C	<5	1410 nM	1120 nM		COc1cc(OC)cc(N(CC2CC2)c2ccc3ncc(-c4nccn4C)nc3c2)c1 [Compound 60]	> 10000 nM
<5	139 °C	<5	> 1000 nM	> 1000 nM		COc1cc(OC)cc(N(CC2CC2)c2ccc3ncc(-n4nccc4C)nc3c2)c1 [Compound 62]	> 10000 nM
<5		<5	> 1000 nM	> 1000 nM	<5	CCOC(=O)c1ncn(-c2cnc3ccc(N(CC4CC4)c4cc(OC)cc(OC)c4)cc3n2)c1C [Compound 65]	> 10000 nM
5.52	137 °C	6.3	4.07 nM	13.2 nM		COc1cc(OC)cc(N(CCCO)c2ccc3ncc(-c4ccnc(N)c4)nc3c2)c1 [Compound 66]	> 10000 nM
<5	173 °C and 172 °C	<5	166 nM	251 nM	<5	COc1cc(OC)cc(N(CC2CC2)c2ccc3ncc(-c4cn[nH]n4)nc3c2)c1 [Compound 69]	> 10000 nM
	169 °C	<5	479 nM	> 1000 nM		COc1cc(OC)cc(N(CC2CC2)c2ccc3ncc(-c4cnnn4C)nc3c2)c1 [Compound 72]	> 10000 nM
<5		6.1	11.5 nM	26.9 nM		COc1cc(OC)cc(N(CC(O)CO)c2ccc3ncc(-c4ccc(N)nc4)nc3c2)c1 (stereo not drawn) [Compound 74]	> 10000 nM
<5		5.5	22.4 nM	87.1 nM		COc1cc(OC)cc(N(CCCO)c2ccc3ncc(-c4ccc(F)nc4)nc3c2)c1 [Compound 117]	> 10000 nM
<5		~5.1	46.8 nM	316 nM		CNC(=O)c1cc(-c2cnc3ccc(N(CCCNCC(F)(F)F)c4cc(OC)cc(OC)c4)cc3n2)ccn1 [Compound 122]	> 10000 nM
<5		<5	363 nM	912 nM		COc1cc(OC)cc(N(CCCNCC(F)(F)F)c2ccc3ncc(-c4ccc(N(C)C(=O)OC(C)(C)C)nc4)nc3c2)c1 [Compound 127]	> 10000 nM
